Experimental data: ChEMBL document CHEMBL1150395, “IRAK-4 inhibitors. Part II: a structure-based assessment of imidazo[1,2-a]pyridine binding” (Bioorg Med Chem Lett, 2008)
pIC50: −log10 of the molar value.

Tests used:
[1] = biological target: T1, Interleukin-1 receptor-associated kinase 4 (Homo sapiens, UniProt Q9NWZ3); assay: Inhibition of IRAK4
T1 sequence (Q9NWZ3 whole entry): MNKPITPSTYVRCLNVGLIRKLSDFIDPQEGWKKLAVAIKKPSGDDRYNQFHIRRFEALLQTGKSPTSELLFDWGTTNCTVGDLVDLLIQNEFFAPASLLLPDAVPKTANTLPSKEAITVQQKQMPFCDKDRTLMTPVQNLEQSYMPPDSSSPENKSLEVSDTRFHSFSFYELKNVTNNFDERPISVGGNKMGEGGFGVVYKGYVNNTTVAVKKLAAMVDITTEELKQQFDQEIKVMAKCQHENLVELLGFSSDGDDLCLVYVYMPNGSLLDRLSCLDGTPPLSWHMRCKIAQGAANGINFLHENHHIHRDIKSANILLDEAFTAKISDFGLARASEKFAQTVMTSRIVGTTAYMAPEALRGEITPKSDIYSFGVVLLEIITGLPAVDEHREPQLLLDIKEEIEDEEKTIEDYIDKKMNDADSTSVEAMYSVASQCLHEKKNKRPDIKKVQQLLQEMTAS

[2] = biological target: T2, Mitogen-activated protein kinase 8 (Homo sapiens, UniProt P45983); assay: Inhibition of JNK1 at 10 uM
[3] = biological target: T3, Mitogen-activated protein kinase 9 (Homo sapiens, UniProt P45984); assay: Inhibition of JNK2 at 10 uM
Target sequence in this assay (P45984 whole entry, looked up): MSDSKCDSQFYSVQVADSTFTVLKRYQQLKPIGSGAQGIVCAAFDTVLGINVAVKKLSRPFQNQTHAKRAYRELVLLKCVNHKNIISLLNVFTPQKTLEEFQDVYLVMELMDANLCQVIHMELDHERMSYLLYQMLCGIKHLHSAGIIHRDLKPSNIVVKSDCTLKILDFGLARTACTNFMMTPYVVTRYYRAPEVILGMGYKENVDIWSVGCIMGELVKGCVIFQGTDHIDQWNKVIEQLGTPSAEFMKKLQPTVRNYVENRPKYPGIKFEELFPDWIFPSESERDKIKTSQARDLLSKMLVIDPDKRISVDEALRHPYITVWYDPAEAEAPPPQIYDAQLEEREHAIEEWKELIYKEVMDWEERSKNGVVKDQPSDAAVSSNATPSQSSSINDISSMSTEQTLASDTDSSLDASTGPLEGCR

[4] = biological target: T4, Interleukin-1 receptor-associated kinase 4 (Homo sapiens) (UniProt Q9NWZ3); assay: Inhibition of IRAK4 at 10 uM
T4 sequence (whole entry): T1 sequence (Q9NWZ3 whole entry)

[5] = biological target: Mitogen-activated protein kinase 10 (Homo sapiens, UniProt P53779); assay: Inhibition of JNK3
[6] = biological target: T2, Mitogen-activated protein kinase 8; assay: Inhibition of JNK1
[7] = biological target: T3, Mitogen-activated protein kinase 9; assay: Inhibition of JNK2
Target sequence in this assay (P45984 whole entry): as the sequence (P45984 whole entry, looked up) above

T2 sequence (P45983 whole entry): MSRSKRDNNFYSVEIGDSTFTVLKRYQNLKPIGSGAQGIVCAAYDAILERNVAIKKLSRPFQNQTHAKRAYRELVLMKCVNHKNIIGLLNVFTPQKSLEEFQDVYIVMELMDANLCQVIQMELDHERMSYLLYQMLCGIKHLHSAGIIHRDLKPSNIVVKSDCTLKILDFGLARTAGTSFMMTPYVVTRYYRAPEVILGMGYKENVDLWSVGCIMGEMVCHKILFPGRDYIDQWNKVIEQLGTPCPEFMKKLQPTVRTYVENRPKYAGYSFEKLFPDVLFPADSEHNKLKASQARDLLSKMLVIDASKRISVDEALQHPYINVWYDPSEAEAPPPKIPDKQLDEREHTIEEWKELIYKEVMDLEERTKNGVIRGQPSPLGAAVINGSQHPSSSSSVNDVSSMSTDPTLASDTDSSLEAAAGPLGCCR
Mitogen-activated protein kinase 10, sequence (P53779 whole entry): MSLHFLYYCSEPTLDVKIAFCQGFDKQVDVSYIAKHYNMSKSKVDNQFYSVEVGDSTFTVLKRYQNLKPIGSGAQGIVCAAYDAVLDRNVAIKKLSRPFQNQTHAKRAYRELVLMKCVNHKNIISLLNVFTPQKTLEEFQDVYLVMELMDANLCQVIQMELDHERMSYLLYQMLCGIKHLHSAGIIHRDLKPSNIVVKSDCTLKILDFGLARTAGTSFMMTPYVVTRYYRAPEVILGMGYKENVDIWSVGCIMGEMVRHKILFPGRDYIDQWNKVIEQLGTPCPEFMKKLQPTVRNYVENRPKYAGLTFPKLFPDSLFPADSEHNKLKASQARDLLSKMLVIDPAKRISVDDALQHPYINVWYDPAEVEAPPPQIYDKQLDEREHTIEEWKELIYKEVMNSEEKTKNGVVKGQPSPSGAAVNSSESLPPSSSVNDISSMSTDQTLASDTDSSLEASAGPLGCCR

| Compound | pIC50 [1] | inhibition [2] | inhibition [3] | inhibition [4] | pIC50 [5] | pIC50 [6] | pIC50 [7] |
| --- | --- | --- | --- | --- | --- | --- | --- |
| c1cc(NC2CCNCC2)nc(-n2cnc3ccccc32)c1 | 7.15 | 0% | 0% | – | – | – | – |
| c1cc(NC2CCNCC2)nc(-c2cnc3ccccn23)c1 | 7.46 | 39% | 15% | – | – | – | – |
| c1cc(NC2CCNCC2)nc(-c2cncc3ccccc23)c1 | 5.71 | 5% | 0% | – | – | – | – |
| CN(c1nccc(-c2cnc3ccccn23)n1)C1CCNCC1 | 6.70 | 33% | 35% | – | – | – | – |
| c1ccn2c(-c3ccnc(NC4CCNCC4)n3)cnc2c1 | 6.67 | – | 59% | – | – | 5.42 | – |
| c1ccn2c(-c3ccnc(NC4CCNCC4)c3)cnc2c1 | – | 0% | 0% | 31% | – | – | – |

Next, values leading:

| pIC50 [1] | inhibition [2] | inhibition [3] | inhibition [4] | pIC50 [5] | pIC50 [6] | pIC50 [7] | Compound |
| --- | --- | --- | --- | --- | --- | --- | --- |
| – | 0% | 0% | 30% | – | – | – | c1cc(NC2CCNCC2)nc(-n2ccc3ccccc32)c1 |
| 5.92 | 24% | 30% | – | – | – | – | c1ccn2c(-c3ccnc(OC4CCNCC4)n3)cnc2c1 |
| 6.40 | – | – | – | 8.52 | – | – | CN(c1nccc(-c2cnc3ccccn23)n1)C1CCCCC1 |
| 6.34 | – | – | – | – | 5.68 | 5.75 | c1cc(NC2CCNCC2)nc(-c2n[nH]c3ccccc23)c1 |
| – | – | – | – | 6.57 | – | – | CNC(=O)CN1CCC(Nc2nccc(-c3cnc4ccccn34)n2)CC1 |
